{
  "source": "patent US6627664B2",
  "about": "“Perylenequinones for use as sonosensitizers” (Altachem Pharma Ltd., priority 2001, dated 2003)",
  "key": {"sarcoma 180 cells [1]": {"system": "sarcoma 180 cells", "details": "80 μM, insonated, versus ultrasound alone; cited from earlier work"}, "[2]": {"details": "insonated solutions, TMPone; cited from earlier work"}, "[3]": {"details": "same concentration as Hp; cited from earlier work"}, "sarcoma 180 cells [4]": {"system": "sarcoma 180 cells", "details": "56 mg/kg administered before insonation; cited from earlier work"}, "cell lines": {"system": "cell lines", "details": "tone-burst and pulsed ultrasound; cited from earlier work"}, "[5]": {"system": "uterine cervical squamous cell carcinomas", "details": "with ultrasound; cited from earlier work"}, "cells": {"system": "cells", "details": "for Photopotentiation Factor: LD50 dark divided by LD50 light; for LD50 Light: light dose not fixed, 0.75-1.0 J/cm2 of 630 nm light", "source_text": "As used herein, “photopotentiation factor” refers to the property of the compound(s) to exert light- or sound-mediated toxicity in excess of its (their) inherent unactivated toxicity. […] Where the term “LD50” has been used above, the term “IC50” may be substituted, to address the bioassays that concern metabolic activity rather than the endpoint of lethality, loss of reproductive capability, or clonogenic death. The relative photoactivation efficiency of a compound may also be determined using a clonogenic assay, an assay that is well known to those skilled in the art.\nIn accordance with the present invention, a desirable PQP derivative is one that is non-toxic (or of low toxicity) at high drug concentrations without activation, i.e., without light (also referred to as “dark”), and/or without sound, and is toxic at low concentrations when light of the appropriate wavelength, or sound of the appropriate frequency, is applied. As is recognized by those skilled in the art, the most desirable compounds are those that provide a wide range of non-toxic doses in an unactivated state, as this characteristic provides an increased safety factor for the patient."}, "[6]": {"experiment": "Singlet oxygen (1O2) yield", "format": "physicochemical"}, "EMT6/Ed tumors": {"system": "EMT6/Ed tumors", "experiment": "EMT6/Ed tumor control after 630 nm light applied transcutaneously", "format": "in vivo, Balb/c mice", "details": "50 μmol/kg body weight", "protocol": "Both the concentration of drug and the dosage of light are important for treatment of tumors.\nEMT6/Ed tumor control in Balb/c mice following various doses of 630 nm light applied transcutaneously. HBEA-R1 was administered at a fixed dose. True control represents animals given neither photosensitizer nor laser light. The animals were treated approximately 7 days following tumor implantation, and euthanized when tumors reached four times treatment volume."}, "EMT6/Ed cells [7]": {"system": "EMT6/Ed cells", "experiment": "Propidium iodide determination of apoptotic nuclei", "format": "cell-based", "source_text": "The background frequency of cells with apoptotic morphology is represented by the untreated control."}, "cell suspension": {"system": "cell suspension", "experiment": "Oxygen dependency of phototoxicity", "format": "cell-based", "details": "total absence of oxygen", "source_text": "Phototoxicity diminishes as the pO2 in the gas phase of the cell suspension is reduced for PDT treatment, from ambient to 0.0%. The oxygen enhancement ratio (O.E.R.) Is 4.0 at the D0."}, "EMT6/Ed cells [8]": {"system": "EMT6/Ed cells", "experiment": "Cellular uptake by 14C-labeling and confocal laser scanning microscopy", "details": "CLSM"}, "[9]": {"experiment": "Light absorption properties (red spectral region, 630 nm)", "format": "physicochemical", "details": "for A630: absorbance at 630 nm"}, "EMT6/Ed cells [10]": {"system": "EMT6/Ed cells"}, "HL-60 cells": {"system": "HL-60 cells", "experiment": "Sonodynamic toxicity (insonation, surviving fraction)", "format": "cell-based, human", "protocol": "Sonodynamic toxicity of two perylenequinone derivatives in human promyelocytic leukemia cells in vitro, with respect to a positive control, hematoporphyrin at 1 mM.\nHL-60 cells were treated with perylenequinone sensitizers and insonated as described above. The surviving fractions were plotted against sensitizer concentration. […] Cell survival decreased steeply over the next two decades of sensitizer concentration."}},
  "note": "Like-named read-outs stand apart in the source and are kept apart here. Marks after values point to notes of the source that are not given here.",
  "data": [
    {"compound": "CCCCCCCCCCOC(C)C1=C(C)c2cc3[n-]c(cc4[n-]c(cc5nc(cc1n2)C(C)=C5C(C)OCCCCCCCCCC)c(C)c4CCC(=O)NC(CC(=O)[O-])C(=O)[O-])c(CCC(=O)NC(CC(=O)[O-])C(=O)[O-])c3C.[Ga+3].[H+].[H+].[H+]", "note": "(stereo not shown) [ATX-70, 2,4-bis(1-decyloxyethyl)-Ga(lll)-1,3,5,8-tetramethylporphryin-6,7-dipropionyl diaspartic acid]", "values": [
      {"measurement": "rate of ultrasound-induced cell damage", "setting": "sarcoma 180 cells [1]", "result": "in excess of four times"},
      {"measurement": "levels of nitroxide relative to solutions containing Hp", "setting": "[2]", "result": 2.5, "unit": "times"},
      {"measurement": "ultrasound induced bleaching relative to Hp", "setting": "[3]", "result": "three times as great"}
    ]},
    {"compound": "C=Cc1c(C)c2cc3nc(c4c5[nH]c(cc6nc(cc1[nH]2)C(C)=C6CC)c(C)c5C(=O)[C@@H]4C(=O)OC)[C@@H](CCC(=O)O)[C@@H]3C", "note": "[Ph-A, Pheophorbide A]", "values": [
      {"measurement": "rate of ultrasound-induced cell damage", "setting": "sarcoma 180 cells [1]", "result": "double"},
      {"measurement": "tumor growth", "setting": "sarcoma 180 cells [4]", "result": "completely inhibited tumor growth"}
    ]},
    {"compound": "CCOC(=O)NC1=C(N2CC2)C(=O)C(NC(=O)OCC)=C(N2CC2)C1=O", "note": "[diaziquone]", "values": [
      {"measurement": "effect in combination with ultrasound on cytotoxicity", "setting": "cell lines", "result": "synergistic effects"},
      {"measurement": "antitumour effect measured by volume reduction", "setting": "[5]", "result": "significant antitumour effect"}
    ]},
    {"compound": "COc1cccc2c1C(=O)c1c(O)c3c(c(O)c1C2=O)C[C@@](O)(C(=O)CO)C[C@@H]3O[C@H]1C[C@H](N)[C@H](O)[C@H](C)O1", "note": "[doxorubicin]", "values": [
      {"measurement": "antitumour effect measured by volume reduction", "setting": "[5]", "result": "significant antitumour effect"}
    ]},
    {"compound": "Ethanolamine-HB [HBEA-R1]", "values": [
      {"measurement": "Photopotentiation Factor", "setting": "cells", "result": "100-167"},
      {"measurement": "LD50 Light", "setting": "cells", "result": 0.15, "unit": "µM"},
      {"measurement": "cell killing with light", "setting": "cells; wavelengths between at least 630 and 688 nm", "result": "capable of killing cells"},
      {"measurement": "LD50 Dark", "setting": "cells; without light", "result": "15 to 25", "unit": "µM"},
      {"measurement": "^1O2 Yield", "setting": "[6]", "result": 0.60},
      {"measurement": "cure rate", "setting": "EMT6/Ed tumors; 50 Joules of 630 nm light", "result": 40, "unit": "%"},
      {"measurement": "tumor cure", "setting": "EMT6/Ed tumors; 100 Joules of 630 nm light", "result": "approximately 90%"},
      {"measurement": "cure rates", "setting": "EMT6/Ed tumors; lower light dosages", "result": "significantly lower"},
      {"measurement": "apoptotic morphology", "setting": "EMT6/Ed cells [7]; PDT, within 48 hours of treatment", "result": 50, "unit": "%"},
      {"measurement": "induction of apoptosis by sensitizer alone", "setting": "EMT6/Ed cells [7]; photosensitizing concentrations, no light", "result": "do not induce apoptosis"},
      {"measurement": "phototoxicity without oxygen", "setting": "cell suspension", "result": "Evidence of type 1—mediated phototoxicity"},
      {"measurement": "time until uptake is complete", "setting": "EMT6/Ed cells [8]", "result": "≤ 2", "unit": "h"}
    ]},
    {"compound": "Hypocrellin B [HB, reference compound]", "values": [
      {"measurement": "Photopotentiation Factor", "setting": "cells", "result": "10-13"},
      {"measurement": "LD50 Light", "setting": "cells", "result": "1.5 to 2", "unit": "µM"},
      {"measurement": "LD50 Dark", "setting": "cells; without light", "result": 20, "unit": "µM"},
      {"measurement": "Abs. Peak in red Spectral region", "setting": "[9]", "result": "658* nm"},
      {"measurement": "Extinction Coefficient (× 10^−3) (630 nm)", "setting": "[9]", "result": "1.00 × 10^−3"},
      {"measurement": "A630", "setting": "[9]", "result": 0.100},
      {"measurement": "Amax/solvent", "setting": "[9]; solvent DMF", "result": "0.118/DMF"},
      {"measurement": "^1O2 Yield", "setting": "[6]", "result": 0.74},
      {"measurement": "cytotoxicity under uptake conditions", "setting": "EMT6/Ed cells [10]", "result": "not cytotoxic"},
      {"measurement": "time until cellular uptake reached equilibrium", "setting": "EMT6/Ed cells [10]", "result": "≤ 15", "unit": "min"}
    ]},
    {"compound": "demethylated HB [DMHB]", "values": [
      {"measurement": "LD50 Dark", "setting": "cells", "result": ">25", "unit": "µM"},
      {"measurement": "Photopotentiation Factor", "setting": "cells", "result": ">5-8.3"},
      {"measurement": "LD50 Light", "setting": "cells", "result": "3 to 5", "unit": "µM"},
      {"measurement": "Abs. Peak in red Spectral region", "setting": "[9]", "result": "648* nm"},
      {"measurement": "Extinction Coefficient (× 10^−3) (630 nm)", "setting": "[9]", "result": "4.77 × 10^−3"},
      {"measurement": "A630", "setting": "[9]", "result": 0.477},
      {"measurement": "Amax/solvent", "setting": "[9]; solvent EtOH", "result": "0.469/EtOH"},
      {"measurement": "^1O2 Yield", "setting": "[6]", "result": 0.42},
      {"measurement": "maximum sonotoxic effect", "setting": "HL-60 cells; 100 μM to 1000 μM, versus 1000 μM Hp control", "result": "comparable to that of the Hp control"},
      {"measurement": "sonotoxicity", "setting": "HL-60 cells; up to 100 μM", "result": "negligible sonotoxicity"}
    ]}
  ]
}
